Among the data in US6479487B1, “6, 9-disubstituted 2-[trans-(4-aminocyclohexyl)amino] purines” (Aventis Pharmaceuticals Inc., priority 1998, dated 2002) are IC50 values, retold here.

One assay concerns DU145. The assay is described as follows: In vitro tumor cell proliferation, DU145. Format: cell-based, human. Particulars: many values given with an undefined *, read-out: In vitro Tumor Cell Proliferation (IC50, μM) Prostate DU145. An outline of the steps:
(§1)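 SRB read-out: cells seeded overnight, 37° C; drug 3 d, medium plus fresh drug replaced, +4 d; TCA fix 60 min 4° C, 0.4% SRB stain 30 min. Alt. CyQUANT: drug 3 d, plates frozen −80° C before read.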

For a further assay, the system named is MDA-MB-435. Nature of the assay: In vitro tumor cell proliferation, MDA-MB-435. Format: cell-based. The note with it: values given with an undefined *, read-out: In vitro Tumor Cell Proliferation (IC50, μM) Breast MDA-MB-435. In short, it runs like this:
as §1

The next assay relates to PC-3. Nature of the assay: In vitro tumor cell proliferation, PC-3. Particulars: many values given with an undefined *, read-out: In vitro Tumor Cell Proliferation (IC50, μM) Prostate PC-3. Format: cell-based, human. An outline of the steps: as §1
A further assay has as its system Colo-205. Nature of the assay: In vitro tumor cell proliferation, Colo-205. The note with it: values given with an undefined *, read-out: In vitro Tumor Cell Proliferation (IC50, μM) Colon Colo-205. Format: cell-based. An outline of the steps: as §1
Another assay concerns MDA-MB-231. The assay is described as follows: In vitro tumor cell proliferation, MDA-MB-231. Format: cell-based, human. Particulars: sulforhodamine B or CyQUANT assay, many values given with an undefined *, read-out: In vitro Tumor Cell Proliferation (IC50, μM) Breast MDA-MB-231. An outline of the steps: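 Proliferation quantified by SRB staining of TCA-fixed cells after 3 days of drug plus 4 days with replenished drug, following overnight attachment at 37 °C.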

The target in a further assay is T1, cdk4/cyclin D1 (Homo sapiens, UniProt P11802).
T1 construct: made in house; host or cells: Sf9 insect cells (Bac-to-Bac baculovirus, pFastBac)
T1 sequence (P11802 whole entry): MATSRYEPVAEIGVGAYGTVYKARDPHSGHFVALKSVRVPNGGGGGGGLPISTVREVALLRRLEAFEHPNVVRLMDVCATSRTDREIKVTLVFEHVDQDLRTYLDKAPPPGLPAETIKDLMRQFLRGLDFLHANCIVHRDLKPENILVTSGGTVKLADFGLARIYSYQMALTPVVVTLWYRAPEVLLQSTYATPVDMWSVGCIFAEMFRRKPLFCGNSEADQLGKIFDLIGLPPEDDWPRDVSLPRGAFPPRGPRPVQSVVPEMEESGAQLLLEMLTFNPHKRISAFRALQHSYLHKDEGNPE
T1 sequence (P24385 whole entry partner): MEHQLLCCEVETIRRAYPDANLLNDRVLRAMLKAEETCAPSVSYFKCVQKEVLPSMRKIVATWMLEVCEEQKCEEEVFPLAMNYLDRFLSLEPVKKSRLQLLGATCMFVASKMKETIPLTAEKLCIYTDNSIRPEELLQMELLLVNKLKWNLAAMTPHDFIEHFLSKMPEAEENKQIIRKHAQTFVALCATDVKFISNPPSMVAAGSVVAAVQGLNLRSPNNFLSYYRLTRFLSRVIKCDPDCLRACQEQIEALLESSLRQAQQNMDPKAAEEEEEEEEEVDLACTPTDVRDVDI
Nature of the assay: Cyclin-dependent Kinase 4 Assay (cdk4/cyclin D1, GST-Rb substrate). Particulars: cdk4/cyclin D1 insect cell lysate, 10 μM ATP, 30 min at 37° C., several values = separate determinations, read-out: CDK4 Inhibition IC50. Format: biochemical. An outline of the steps:
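IC50 against cdk4 measured by scintillation counting of bead-bound GST-Rb (0.5 μg) after filtration and four TNEN washes. Reaction was 30 min at 37 °C in HEPES pH 7.5 buffer with 10 mM MgCl2 and 1 mM EGTA. Enzyme source was 0.1 μg Sf9 lysate coinfected with cdk4 and cyclin D1.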

The next assay concerns HT-29. Nature of the assay: In vitro tumor cell proliferation, HT-29. The note with it: many values given with an undefined *, read-out: In vitro Tumor Cell Proliferation (IC50, μM) Colon HT-29. Format: cell-based, human. An outline of the steps:
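Growth was quantified either with CyQUANT, plates frozen at −80° C after 3 days of drug, or by sulforhodamine B staining of TCA-fixed cells after 3 days of drug plus 4 days with fresh drug. Trypan blue-excluding HT-29 cells were plated overnight at 37° C before dosing.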

The next assay deals with DMS-114. Nature of the assay: In vitro tumor cell proliferation, DMS-114. It counts as cell-based, human. Particulars: many values given with an undefined *, read-out: In vitro Tumor Cell Proliferation (IC50, μM) Lung DMS-114. An outline of the steps: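 Human small cell lung carcinoma DMS-114 cells plated overnight, then drug-treated for 3 days, medium and drug renewed, and incubated 4 more days. Growth read by sulforhodamine B staining after TCA fixation; alternatively by CyQUANT after 3 days' drug exposure and freezing at −80 °C.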

The target in a further assay is T2, cdk2/cyclin E (Homo sapiens, UniProt P24941).
T2 construct: made in house; host or cells: insect cells (baculovirus co-infection)
Nature of the assay: Cyclin-Dependent Kinase 2 Assay (cdk2/cyclin E, GST-Rb substrate). It counts as biochemical. The note with it: recombinant cdk2/cyclin E, 10 μM ATP, 30 min at 30° C., several values in a cell = separate determinations, read-out: CDK-2 Inhibition IC50. The procedure: Substrate: GST-Rb as described above for cdk4/cyclin D1
Assay conditions for cdk2/cyclin E were identical to those for cdk4/cyclin D1 including the substrate. The concentration of recombinant cdk2/cyclin E in the assay was 0.1 μg per 100 μl assay. Incubation was for 30 min at 30° C.

In a further assay the test system is A549. The assay is described as follows: In vitro tumor cell proliferation, A549. Format: cell-based, human. The note with it: many values given with an undefined *, read-out: In vitro Tumor Cell Proliferation (IC50, μM) Lung A549. In short, it runs like this: as §1
The mark [1] stands for this setting: Homo sapiens, MDA-MB-435, MDA-MB-435.
The mark [2] stands for this setting: Homo sapiens, COLO 205, Colo-205.
The mark [3] stands for this setting: Homo sapiens, MDA-MB-231, MDA-MB-231.

Where “and” joins values, the source holds several entries; their conditions need not be identical. Equal entries are not always repeated. Structures can show the parent of a compound that is named as a salt. Where two headings read alike, the source gives them in different places.

With `N[C@H]1CC[C@H](Nc2nc(NC3CCN(Cc4ccc5ccccc5c4)CC3)c3ncn(C4CCCC4)c3n2)CC1` [Example 147-p, 2-[Trans-(4-aminocyclohexyl)amino]-6-[4-[1-(2-naphthyl)methyl]piperidinylamino]-9-cyclopentylpurine trihydrochloride], the IC50 worked out at 0.54 µM in the assay with DU145 (Homo sapiens, DU-145, DU145); 0.59 µM with MDA-MB-435 (setting [1]); 0.68 µM in the assay on MDA-MB-435 (MDA-MB-435, trihydrochloride); 0.46 µM in the assay with PC-3 (Homo sapiens, PC-3, PC-3); 0.66 µM with PC-3 (PC-3, trihydrochloride); 0.48 µM with Colo-205 (Colo-205, trihydrochloride). The IC50 with Colo-205 (setting [2]) is 0.45 µM; with MDA-MB-231 (setting [3]) it was 0.57 µM; with MDA-MB-231 (MDA-MB-231, trihydrochloride), 0.6 µM; on cdk4/cyclin D1 it was 3100 nM and 3900 nM; in the assay with HT-29 (HT-29, trihydrochloride) it was 0.72 µM; in the assay on HT-29 (Homo sapiens, HT-29, HT-29), 0.71 µM. Moreover, the IC50 is 0.68 µM with DMS-114 (DMS-114, trihydrochloride); 0.91 µM in the assay on DMS-114 (Homo sapiens, DMS-114, DMS-114); 300 nM and 110 nM and 360 nM on cdk2/cyclin E; 0.34 µM in the assay on A549 (A549, trihydrochloride); 0.39 µM with A549 (Homo sapiens, A549, A549).

For `N[C@H]1CC[C@H](Nc2nc(NC3CCN(Cc4cc(Cl)ccc4Cl)CC3)c3ncn(C4CCCC4)c3n2)CC1` [Example 147-r, 2-[Trans-(4-aminocyclohexyl)amino]-6-[4-[1-(2,5-dichlorobenzyl)]piperidinylamino]-9-cyclopentylpurine trihydrochloride], the IC50 amounted to 0.4 µM with DU145 (DU145, trihydrochloride); 0.45 µM with DU145 (Homo sapiens, DU-145, DU145); 0.6 µM in the assay with MDA-MB-435 (setting [1]); 0.65 µM in the assay on MDA-MB-435 (MDA-MB-435, trihydrochloride); 0.39 µM in the assay on PC-3 (Homo sapiens, PC-3, PC-3); 0.55 µM with PC-3 (PC-3, trihydrochloride). The IC50 is 0.38 µM in the assay with Colo-205 (Colo-205, trihydrochloride); 0.32 µM in the assay on Colo-205 (setting [2]); 0.48 µM in the assay with MDA-MB-231 (MDA-MB-231, trihydrochloride); 7200 nM and 4300 nM on cdk4/cyclin D1; 0.47 µM in the assay on HT-29 (HT-29, trihydrochloride); 0.49 µM in the assay on HT-29 (Homo sapiens, HT-29, HT-29). In addition, the IC50 in the assay with DMS-114 (DMS-114, trihydrochloride) was 0.48 µM; with DMS-114 (Homo sapiens, DMS-114, DMS-114) it was 0.62 µM; on cdk2/cyclin E it was 90 nM and 580 nM and 550 nM and 610 nM; in the assay on A549 (Homo sapiens, A549, A549), 0.33 µM.

For the compound `N[C@H]1CC[C@H](Nc2nc(NC3CCN(CC4CCCCC4)CC3)c3ncn(C4CCCC4)c3n2)CC1` [Example 147-s, 2-[Trans-(4-aminocyclohexyl)amino]-6-[4-(1-cyclohexylmethyl)piperidinylamino]-9-cyclopentylpurine trihydrochloride], the IC50 in the assay on DU145 (DU145, trihydrochloride) amounted to 0.27 µM; in the assay on DU145 (Homo sapiens, DU-145, DU145), 0.29 µM; with MDA-MB-435 (setting [1]) it was 0.42 µM; in the assay with MDA-MB-435 (MDA-MB-435, trihydrochloride), 0.43 µM; with PC-3 (PC-3, trihydrochloride), 0.37 µM; in the assay with Colo-205 (Colo-205, trihydrochloride), 0.23 µM. Further, the IC50 was 0.28 µM with Colo-205 (setting [2]); 0.33 µM with MDA-MB-231 (MDA-MB-231, trihydrochloride); 1300 nM and 620 nM at cdk4/cyclin D1; 0.33 µM with HT-29 (HT-29, trihydrochloride); 0.35 µM with HT-29 (Homo sapiens, HT-29, HT-29); 0.3 µM in the assay with DMS-114 (DMS-114, trihydrochloride). Besides, the IC50 in the assay with DMS-114 (Homo sapiens, DMS-114, DMS-114) was 0.57 µM; on cdk2/cyclin E, 120 nM and 100 nM; with A549 (A549, trihydrochloride), 0.2 µM; in the assay with A549 (Homo sapiens, A549, A549), 0.22 µM.

With `N[C@H]1CC[C@H](Nc2nc(NC3CCN(Cc4ccc(F)cc4Cl)CC3)c3ncn(C4CCCC4)c3n2)CC1` [Example 147-t, 2-[Trans-(4-aminocyclohexyl)amino]-6-[4-[1-(2-chloro-4-fluorobenzyl)]piperidinylamino]-9-cyclopentylpurine trihydrochloride], the IC50 was determined as 0.38 µM with DU145 (DU145, trihydrochloride); 0.33 µM in the assay on DU145 (Homo sapiens, DU-145, DU145); 0.41 µM with MDA-MB-435 (setting [1]); 0.69 µM in the assay on MDA-MB-435 (MDA-MB-435, trihydrochloride); 0.37 µM in the assay on PC-3 (Homo sapiens, PC-3, PC-3); 0.45 µM in the assay with PC-3 (PC-3, trihydrochloride). Also, the IC50 is 0.36 µM in the assay with Colo-205 (Colo-205, trihydrochloride); 0.37 µM with MDA-MB-231 (setting [3]); 2200 nM and 1700 nM on cdk4/cyclin D1; 0.48 µM in the assay with HT-29 (HT-29, trihydrochloride); 0.42 µM in the assay on HT-29 (Homo sapiens, HT-29, HT-29); 0.46 µM with DMS-114 (DMS-114, trihydrochloride). Further, the IC50 in the assay with DMS-114 (Homo sapiens, DMS-114, DMS-114) was 0.71 µM; at cdk2/cyclin E it was 250 nM and 160 nM and 340 nM; in the assay on A549 (A549, trihydrochloride), 0.28 µM; in the assay with A549 (Homo sapiens, A549, A549), 0.3 µM.

On to `N[C@H]1CC[C@H](Nc2nc(NC3CCN(Cc4ccc(F)c(F)c4)CC3)c3ncn(C4CCCC4)c3n2)CC1` [Example 147-u, 2-[Trans-(4-aminocyclohexyl)amino]-6-[4-[1-(3,4-difluorobenzyl)]piperidinylamino]-9-cyclopentylpurine trihydrochloride], for which the IC50 in the assay with DU145 (DU145, trihydrochloride) came out at 0.28 µM; in the assay on DU145 (Homo sapiens, DU-145, DU145), 0.38 µM; in the assay with MDA-MB-435 (setting [1]) it was 0.47 µM; in the assay with MDA-MB-435 (MDA-MB-435, trihydrochloride) it was 0.48 µM; in the assay with PC-3 (Homo sapiens, PC-3, PC-3), 0.35 µM; in the assay with PC-3 (PC-3, trihydrochloride) it was 0.43 µM. Moreover, the IC50 in the assay on Colo-205 (Colo-205, trihydrochloride) is 0.22 µM; in the assay on Colo-205 (setting [2]), 0.28 µM; in the assay on MDA-MB-231 (setting [3]), 0.33 µM; with MDA-MB-231 (MDA-MB-231, trihydrochloride), 0.36 µM; on cdk4/cyclin D1 it was 2800 nM and 2600 nM; in the assay with HT-29 (HT-29, trihydrochloride), 0.33 µM. The IC50 was 0.41 µM with HT-29 (Homo sapiens, HT-29, HT-29); 0.35 µM with DMS-114 (DMS-114, trihydrochloride); 0.62 µM in the assay with DMS-114 (Homo sapiens, DMS-114, DMS-114); 150 nM and 110 nM at cdk2/cyclin E; 0.19 µM in the assay on A549 (A549, trihydrochloride); 0.27 µM in the assay with A549 (Homo sapiens, A549, A549).

In the case of `N[C@H]1CC[C@H](Nc2nc(NC3CCN(Cc4c(F)cccc4F)CC3)c3ncn(C4CCCC4)c3n2)CC1` [Example 147-v, 2-[Trans-(4-aminocyclohexyl)amino]-6-[4-[1-(2,6-difluorobenzyl)]piperidinylamino]-9-cyclopentylpurine trihydrochloride], the IC50 amounted to 0.57 µM with DU145 (DU145, trihydrochloride); 0.52 µM in the assay with DU145 (Homo sapiens, DU-145, DU145); 1 µM with MDA-MB-435 (setting [1]); 1.3 µM in the assay with MDA-MB-435 (MDA-MB-435, trihydrochloride); 0.85 µM with PC-3 (Homo sapiens, PC-3, PC-3); 1.1 µM in the assay on PC-3 (PC-3, trihydrochloride). Moreover, the IC50 in the assay with Colo-205 (Colo-205, trihydrochloride) was 0.77 µM; with Colo-205 (setting [2]), 0.58 µM; with MDA-MB-231 (setting [3]), 0.63 µM; in the assay on MDA-MB-231 (MDA-MB-231, trihydrochloride) it was 1.2 µM; on cdk4/cyclin D1 it was 2000 nM and 3400 nM; in the assay with HT-29 (HT-29, trihydrochloride), 0.83 µM. In addition, the IC50 with HT-29 (Homo sapiens, HT-29, HT-29) was found to be 0.76 µM; with DMS-114 (DMS-114, trihydrochloride), 1.1 µM; in the assay on DMS-114 (Homo sapiens, DMS-114, DMS-114), 1.9 µM; on cdk2/cyclin E, 240 nM; with A549 (A549, trihydrochloride) it was 0.63 µM; in the assay with A549 (Homo sapiens, A549, A549), 0.5 µM.
